Patent US11274158B2, “Methods and compositions for treating inflammatory or autoimmune diseases or conditions using calcitonin receptor activators” (Flagship Pioneering Innovations V, Inc., priority 2018, dated 2022)

Tested on: human macrophages
Assay: Effect of calcitonin receptor agonism on cytokine (IL6) secretion in human macrophages, bead-based immunoassay
Type: cell-based
Conditions: human monocyte-derived macrophages, supernatant
Method: CD14+ monocytes were isolated from human PBMCs using negative magnetic bead selection (Stemcell Technologies) on day 0. Cells were cultured with M-CSF to differentiate monocytes to macrophages. On day 6, cells were treated with SUN-B-8155, a non-peptide calcitonin receptor agonist (Sigma-Aldrich), at concentrations 2 μM and 20 μM overnight. Supernatant was collected and bead-based immunoassays (Biolegend) were performed to detect changes in cytokine secretion.
Across multiple donors, secretion of the inflammatory cytokine, IL6, by macrophages was decreased after addition of small molecule agonist to calcitonin receptor, as shown in Table 13 below.

CC(=Nc1ccccc1N)c1c(C)cc(=O)n(O)c1O [SUN-B-8155]
Fold change of IL6 (Normalized to Macs + LPS with no compound treatment) (2 μM overnight): 0.92
Fold change of IL6 (Normalized to Macs + LPS with no compound treatment) (20 μM overnight): 0.09
